PMC6105804, “In Vitro and In Vivo Evaluation of APX001A/APX001 and Other Gwt1 Inhibitors against Cryptococcus” (Antimicrobial Agents and Chemotherapy, 2018)
Read-outs that look alike come from different tables or passages of the source.

Assays:
A. fumigatus MYA3626 = assay: Broth microdilution susceptibility testing for molds (CLSI M38-A2); format: cell-based
Description: (§1) C. neoformans strains H99, DUMC 118.00, and DUMC 158.03 and C. gattii strains R272 and RSA-MW-3515 were obtained from Duke University. C. albicans 90028, A. fumigatus MYA3626, C. neoformans 14116, C. neoformans 76484, and the pathogenic Cryptococcus reference strains panel (ATCC MP-11) were obtained from the American Type Culture Collection (ATCC; Manassas, VA, USA). The ATCC MP-11 panel consists of strains representing eight molecular types and three subtypes of C. neoformans and C. gattii.
(§2) To establish the antimicrobial activity of the APX001A analogs, broth microdilution susceptibility testing was performed according to Clinical and Laboratory Standards Institute (CLSI) guidelines M27-A3 ([47]) for yeasts and M38-A2 for molds ([48]). APX001A and analogs were first diluted in DMSO to obtain intermediate dilutions. These were further diluted in microtiter plates to obtain a final concentration of 2 to 0.002 μg/ml. One microliter of DMSO was added to the no-drug control wells. The solutions were mixed on a plate shaker for 10 min, and the plates were incubated at 35°C for 40 to 48 h (C. albicans, A. fumigatus) and 72 h (C. neoformans). The minimum concentration that led to a 50% reduction in fungal growth compared to that for the control (determined with the aid of a reading mirror) was determined as the MIC for C. albicans and C. neoformans. The minimum concentration that led to the shortening of hyphae compared to the hyphal growth in DMSO control wells was determined as the minimum effective concentration (MEC) for A. fumigatus (as read for the echinocandins). The use of the MIC and MEC endpoints for APX001A (formerly E1210) against yeasts and molds, respectively, has been described previously ([19][–][21]). For the cryptococcal synergy studies, APX001A and APX2020 MIC values were read at 50% inhibition.

C. albicans 90028 = assay: Broth microdilution susceptibility testing (CLSI M27-A3); format: cell-based, Candida albicans
Description: as §1, §2

[1] = system: FLC-susceptible and FLC-nonsusceptible/resistant strains of C. neoformans and C. gattii; assay: Broth microdilution, summary over the 18-strain Cryptococcus collection; format: cell-based, Cryptococcus neoformans and Cryptococcus gattii; conditions: for MIC90 / MIC: 18 strains of C. neoformans and C. gattii; for MIC: read-out: Geometric mean MIC
Procedure: as §2, with “The minimum concentration that led to the shortening of hyphae compared to the hyphal growth in DMSO control wells was determined as the minimum effective concentration (MEC) for A. fumigatus (as read for the echinocandins).” left out

C. neoformans = assay: Broth microdilution susceptibility testing (CLSI M27-A3); format: cell-based, Cryptococcus neoformans; conditions: for MIC: Cryptococcus neoformans
Description: as §1, §2

C. gattii = assay: as above; format: cell-based; conditions: Cryptococcus gattii
Description: as §1, §2

[2] = Single-dose mouse pharmacokinetics of prodrugs with or without ABT; format: in vivo; conditions: for Ratio of AUC with ABT/AUC without ABT, i.p. dosing / Ratio of AUC with ABT/AUC without ABT, p.o. dosing: 26 mg/kg prodrug; for AUC: male, CD-1, mouse, plasma, 26 mg/kg
Procedure: The area under the curve (AUC) was calculated from time zero to the time of the last measurable concentration. The active metabolite concentrations in plasma (APX001A, APX2039, APX2020, and APX2041) were determined by liquid chromatography-tandem mass spectrometry. PK parameters were determined using Phoenix WinNonlin (v7.0) software and a noncompartmental model.

C. neoformans strain H99 = assay: Murine cryptococcal meningitis model with ABT, dose-response study; format: in vivo, Cryptococcus neoformans; conditions: control animals with daily 100-mg/kg ABT without an APX compound
Procedure: A dose-response study was performed with APX2096 and APX2097 to confirm the observed activity. In this study, QD doses of 7.5, 20, and 60 mg/kg were evaluated in conjunction with the administration of ABT. A 60-mg/kg dose QD without ABT was also evaluated as a control.
FIG 3 Dose-response of APX2096 and APX2097 in a murine model of cryptococcal meningitis in conjunction with ABT administration. ABT at 100 mg/kg was administered orally to male CD-1 mice at 2 h prior to each APX compound dose. Mice were injected with 4.8 × 10^4 CFU C. neoformans strain H99 per mouse via the lateral tail vein at time zero. Treatment with the APX compounds was initiated at 1 h postinfection by i.p. administration and continued for 7 days, with 100-mg/kg ABT being administered orally 2 h prior to each APX compound dose. The correction factors for prodrug potencies versus the potencies of the active moieties were similar enough such that the same factor (1.3) was used for all APX compounds. Fungal burden data were log10 transformed and evaluated using Kruskal-Wallis tests with Dunn's multiple-comparison test for post hoc analysis (Prism software, v5; GraphPad Software, Inc., San Diego, CA). […] A P value of ≤0.05 was considered statistically significant (*, P ≤ 0.05; **, P ≤ 0.01; ***, P ≤ 0.001). The 95% confidence interval (CI) is presented.
C. neoformans strain H99 was grown in yeast extract-peptone-dextrose broth at 30°C on a shaker (220 rpm) for 24 h, centrifuged (1,980 relative centrifugal force), and washed twice in phosphate-buffered saline (PBS), resuspended in PBS, and quantified by hemacytometric count. Male CD-1 mice were infected with ∼5 × 10^4 CFU per mouse via lateral tail vein injection of 100 μl. Mice were weighed, and treatment was begun within 1 h after infection. Treatments were administered daily for 7 days. Mice were weighed daily and observed for acute and chronic adverse symptoms. Mice were sacrificed on day 8, and the brain and left lung were homogenized and cultured for quantitative determination of the tissue burden (number of CFU per gram of tissue). Tissues were homogenized for 25 s in 1 ml phosphate-buffered saline using two 6.5-mm steel beads and a Mini-Beadbeater 16 apparatus (Biospec Products, Inc., Bartlesville, OK) and serially diluted in 10-fold steps. Aliquots (100 μl) of homogenate were plated and incubated for 3 to 7 days at 37°C. Fungal burden data were log10 transformed and evaluated using Kruskal-Wallis tests with Dunn's multiple-comparison test for post hoc analysis (Prism software, v5; GraphPad Software, Inc., San Diego, CA). A P value of ≤0.05 was considered statistically significant.

[3] = Aspergillus fumigatus, MYA3626; read-out: MIC or MEC for A. fumigatus MYA3626
[4] = Candida albicans, 90028; read-out: MIC, C. albicans 90028
[5] = 72 h, Table 1, 50% growth inhibition for FLC, caspofungin and APX compounds, 100% for AMB, 72 h, read-out: MIC, C. neoformans H99
[6] = C. neoformans isolate 14116, read-out: MIC
[7] = C. neoformans isolate 76484, read-out: MIC
[8] = C. neoformans isolate DUMC 118.00 (FLC resistant), read-out: MIC
[9] = C. neoformans isolate DUMC 158.03 (FLC resistant), read-out: MIC
[10] = C. neoformans isolate MYA-4564, read-out: MIC
[11] = C. neoformans isolate MYA-4565, read-out: MIC
[12] = C. neoformans isolate MYA-4566, read-out: MIC
[13] = C. neoformans isolate MYA-4567, read-out: MIC
[14] = Table 2, C. neoformans isolate H99, read-out: MIC
[15] = C. gattii isolate MYA-4093, read-out: MIC
[16] = C. gattii isolate MYA-4094, read-out: MIC
[17] = C. gattii isolate MYA-4560 (first listing, r17), read-out: MIC
[18] = C. gattii isolate MYA-4560 (second listing, r21), read-out: MIC
[19] = C. gattii isolate MYA-4561, read-out: MIC
[20] = C. gattii isolate MYA-4562, read-out: MIC
[21] = C. gattii isolate MYA-4563, read-out: MIC
[22] = C. gattii isolate MYA-4877, read-out: MIC
[23] = C. gattii isolate RSA-MW-3615 (FLC resistant), read-out: MIC
[24] = Table 1, 50% growth inhibition for FLC, caspofungin and APX compounds, 100% for AMB, read-out: MIC, C. gattii WM276
[25] = intraperitoneal, AUC of analyte after 26 mg/kg prodrug, 100 mg/kg ABT orally 2 h before, read-out: Avg AUC resulting from 26-mg/kg dose, i.p. dosing + ABT
[26] = ip, AUC of analyte after 26 mg/kg of the corresponding prodrug, male CD-1 mice, no ABT, read-out: Avg AUC resulting from 26-mg/kg dose, i.p. dosing
[27] = po, AUC of analyte after 26 mg/kg prodrug, 100 mg/kg ABT orally 2 h before, read-out: Avg AUC resulting from 26-mg/kg dose, p.o. dosing + ABT
[28] = po, AUC of analyte in plasma after 26 mg/kg of the corresponding prodrug, male CD-1 mice, no ABT, read-out: Avg AUC resulting from 26-mg/kg dose, p.o. dosing

Compound: Nc1ncccc1-c1cc(Cc2ccc(OCc3ccccc3)nc2)no1 [APX2041]
- MIC (A. fumigatus MYA3626; [3]): 0.016 µg/mL
- MIC (C. albicans 90028; [4]): 0.031 µg/mL
- MIC90 [1]: 0.125 µg/mL
- MIC [1]: 0.034 µg/mL
- MIC (C. neoformans; [5]): 0.031 µg/mL
- MIC (C. neoformans; [6]): 0.016 µg/mL
- MIC (C. neoformans; [7]): 0.016 µg/mL
- MIC (C. neoformans; [8]): 0.063 µg/mL
- MIC (C. neoformans; [9]): 0.125 µg/mL
- MIC (C. neoformans; [10]): 0.016 µg/mL
- MIC (C. neoformans; [11]): 0.125 µg/mL
- MIC (C. neoformans; [12]): 0.063 µg/mL
- MIC (C. neoformans; [13]): 0.031 µg/mL
- MIC (C. neoformans; [14]): 0.031 µg/mL
- MIC (C. gattii; [15]): 0.125 µg/mL
- MIC (C. gattii; [16]): 0.063 µg/mL
- MIC (C. gattii; [17]): 0.016 µg/mL
- MIC (C. gattii; [18]): 0.016 µg/mL
- MIC (C. gattii; [19]): 0.031 µg/mL
- MIC (C. gattii; [20]): 0.031 µg/mL
- MIC (C. gattii; [21]): 0.031 µg/mL
- MIC (C. gattii; [22]): 0.016 µg/mL
- MIC (C. gattii; [23]): 0.016 µg/mL
- MIC (C. gattii; [24]): 0.016 µg/mL
- Ratio of AUC with ABT/AUC without ABT, i.p. dosing [2]: 15.5
- Ratio of AUC with ABT/AUC without ABT, p.o. dosing [2]: 14.3
- AUC [2, 25]: 72600 ± 9070 ng·h/mL
- AUC [2, 26]: 4680 ± 730 ng·h/mL
- AUC [2, 27]: 49900 ± 10300 ng·h/mL
- AUC [2, 28]: 3490 ± 270 ng·h/mL

Compound: Nn1nnc2ccccc21 [ABT, 1-Aminobenzotriazole, reference compound]
- mean counts in brain tissue (C. neoformans strain H99): 8.07 ± 0.28 log10 CFU/g
- mean counts in lung tissue (C. neoformans strain H99): 7.04 ± 0.34 log10 CFU/g

Compound: CC[C@H](C)C[C@H](C)CCCCCCCCC(=O)N[C@H]1C[C@@H](O)[C@@H](NCCN)NC(=O)[C@@H]2[C@@H](O)CCN2C(=O)[C@H]([C@H](O)CCN)NC(=O)[C@H]([C@H](O)[C@@H](O)c2ccc(O)cc2)NC(=O)[C@@H]2C[C@@H](O)CN2C(=O)[C@H]([C@@H](C)O)NC1=O [CAS, caspofungin, reference compound]
- MIC (A. fumigatus MYA3626; Aspergillus fumigatus, MYA3626, read-out: MIC or MEC for A. fumigatus MYA3626): 0.25 µg/mL
- MIC (C. albicans 90028; Candida albicans, 90028, read-out: MIC, C. albicans 90028): 0.5 µg/mL

Compound: Nc1ncccc1-c1cc(Cc2ccc(Oc3cccc(F)n3)cc2)no1 [APX2039]
- MIC (A. fumigatus MYA3626; [3]): 0.125 µg/mL
- MIC (C. albicans 90028; [4]): 0.031 µg/mL
- MIC90 [1]: 0.031 µg/mL
- MIC [1]: 0.01 µg/mL
- fold lower MIC values than APX001A versus Cryptococcus ([1]; Table 1 strains H99 and WM276): 32 fold
- MIC (C. neoformans; [5]): 0.008 µg/mL
- MIC (C. neoformans; [6]): 0.004 µg/mL
- MIC (C. neoformans; [7]): 0.004 µg/mL
- MIC (C. neoformans; [8]): 0.016 µg/mL
- MIC (C. neoformans; [9]): 0.031 µg/mL
- MIC (C. neoformans; [10]): 0.004 µg/mL
- MIC (C. neoformans; [11]): 0.031 µg/mL
- MIC (C. neoformans; [12]): 0.008 µg/mL
- MIC (C. neoformans; [13]): 0.016 µg/mL
- MIC (C. neoformans; [14]): 0.004 µg/mL
- fold improved anti-C. neoformans H99 activity vs APX001A (C. neoformans; from MIC values of Table 1): 32 fold
- MIC (C. gattii; [15]): 0.016 µg/mL
- MIC (C. gattii; [16]): 0.016 µg/mL
- MIC (C. gattii; [17]): 0.008 µg/mL
- MIC (C. gattii; [18]): 0.008 µg/mL
- MIC (C. gattii; [19]): 0.016 µg/mL
- MIC (C. gattii; [20]): 0.016 µg/mL
- MIC (C. gattii; [21]): 0.016 µg/mL
- MIC (C. gattii; [22]): 0.008 µg/mL
- MIC (C. gattii; [23]): 0.004 µg/mL
- MIC (C. gattii; [24]): 0.004 µg/mL
- Ratio of AUC with ABT/AUC without ABT, i.p. dosing [2]: 8.3
- Ratio of AUC with ABT/AUC without ABT, p.o. dosing [2]: 8.6
- AUC [2, 25]: 97200 ± 12600 ng·h/mL
- AUC [2, 26]: 11800 ± 1830 ng·h/mL
- AUC [2, 27]: 91300 ± 20800 ng·h/mL
- AUC [2, 28]: 10700 ± 480 ng·h/mL
- fold higher exposure than the three other compounds ([2]; oral administration of prodrug with ABT): approximately 2 fold
- fold higher AUC than the other compounds ([2]; prodrugs administered i.p.): approximately 2 fold
